We go through four molecules from US9228178B2, “Engineering of xylose reductase and overexpression of xylitol dehydrogenase and xylulokinase improves xylose alcoholic fermentation in the thermotolerant yeast Hansenula polymorpha” (Archer Daniels Midland Co., priority 2008, dated 2016).

Usually Km stands for the concentration of substrate that gives half-maximal velocity.

Substitutions are numbered along the chain they refer to. Numbers in names are those of the source.

Series [1] deals with T1, Hansenula polymorpha xylose reductase (XR) variant XRm, K341R N343D, cofactor binding site SEQ ID NO: 2 (Ogataea polymorpha, UniProt A0A1B7SLF1, K271R/N273D).
T1 sequence (A0A1B7SLF1 with tags, fused parts or gaps K271R/N273D): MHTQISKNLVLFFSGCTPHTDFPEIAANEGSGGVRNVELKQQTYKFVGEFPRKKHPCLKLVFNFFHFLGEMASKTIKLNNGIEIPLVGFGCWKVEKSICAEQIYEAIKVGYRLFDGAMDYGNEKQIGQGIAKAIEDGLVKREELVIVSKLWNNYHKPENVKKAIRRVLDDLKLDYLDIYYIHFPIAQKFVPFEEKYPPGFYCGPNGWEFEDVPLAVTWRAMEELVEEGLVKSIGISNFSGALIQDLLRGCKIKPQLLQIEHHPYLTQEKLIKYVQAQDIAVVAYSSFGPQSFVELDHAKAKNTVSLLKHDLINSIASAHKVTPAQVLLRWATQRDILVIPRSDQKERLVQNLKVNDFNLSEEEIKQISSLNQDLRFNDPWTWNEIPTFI
As to the kind of experiment: KM towards NADPH or NADH of engineered xylose reductase (XRm), spectrophotometric XR assay in cell extract. The note with it: XRm vs native XR. The protocol:
The XR activity in cell extracts was determined spectrophotometrically at 37° C. […] The reaction was started with cell extract addition.
Biochemical properties of XR in one of constructed recombinant strains (designated XRm) were studied.

Series [2] addresses T2, Hansenula polymorpha xylose reductase (XR), native (XRn), cofactor binding site SEQ ID NO: 1 (Ogataea polymorpha, UniProt A0A1B7SLF1).
T2 construct: native XYL1 ORF from CBS4732 genomic DNA, HpGAP promoter (pX1N-Z), overexpressed in H. polymorpha Δxyl1; cell extract
T2 sequence (A0A1B7SLF1 with tags, fused parts or gaps): T1 sequence (A0A1B7SLF1 with tags, fused parts or gaps K271R/N273D) with R341K, D343N
As to the kind of experiment: KM towards NADPH or NADH of native xylose reductase (XRn), spectrophotometric XR assay in cell extract. It counts as biochemical. The note with it: dual cofactor specificity.

Substrate in series [3]: NC(=O)C1=CN([C@@H]2O[C@H](COP(=O)(O)OP(=O)(O)OC[C@H]3O[C@@H](n4cnc5c(N)ncnc54)[C@H](OP(=O)(O)O)[C@@H]3O)[C@@H](O)[C@H]2O)C=CC1
In words: cells, lysate or membranes. As to conditions: xylose as substrate, 37° C., pH 7.0, xylose 350 mM, NADPH 20-150 μM.

Substrate in series [4]: NC(=O)C1=CN([C@@H]2O[C@H](COP(=O)(O)OP(=O)(O)OC[C@H]3O[C@@H](n4cnc5c(N)ncnc54)[C@H](O)[C@@H]3O)[C@@H](O)[C@H]2O)C=CC1
As to the kind of experiment: cells, lysate or membranes. The note with it: other: XRm, 37° C., pH 7.0, xylose 350 mM, NADH 20-150 μM.

As to `NC(=O)C1=CN([C@@H]2O[C@H](COP(=O)(O)OP(=O)(O)OC[C@H]3O[C@@H](n4cnc5c(N)ncnc54)[C@H](O)[C@@H]3O)[C@@H](O)[C@H]2O)C=CC1` [NADH], the “KM for NADH, compared with native XR (in words)” value in series [1] was “remained nearly unchanged”. As for `NC(=O)C1=CN([C@@H]2O[C@H](COP(=O)(O)OP(=O)(O)OC[C@H]3O[C@@H](n4cnc5c(N)ncnc54)[C@H](OP(=O)(O)O)[C@@H]3O)[C@@H](O)[C@H]2O)C=CC1` [NADPH], in series [2], the “cofactor preference for NADPH (over NADH)” value is above 10 fold. Besides, the “KM for NADPH, change against native XR (in words)” value in series [1] is on record as “significant increase”. In series [1] (xylose as substrate), the “KM for NADPH, times higher than the KM for NADPH of the native XR” value is 17 times.

B1: Hansenula polymorpha xylose reductase (XR) variant XRm, K341R N343D, cofactor binding site SEQ ID NO: 2 (Ogataea polymorpha; K271R/N273D) (protein)
chain: T1 sequence (A0A1B7SLF1 with tags, fused parts or gaps K271R/N273D)
Turning to B1, the Km in series [3] (other: XRm) stood at 152 µM; in series [4] it was 112 µM.

B2: Hansenula polymorpha xylose reductase (XR), native (XRn), cofactor binding site SEQ ID NO: 1 (Ogataea polymorpha) (protein)
chain: T1 sequence (A0A1B7SLF1 with tags, fused parts or gaps K271R/N273D) with R341K, D343N
With B2, the Km in series [3] (other: native XR) amounted to 9 µM.
